Experimental data from publication PMC4468608, “A distinct p53 target gene set predicts for response to the selective p53–HDM2 inhibitor NVP-CGM097” (eLife, 2015).
Like-named read-outs stand apart in the source and are kept apart here.

Tested on: cell lines from the Cancer Cell Line Encyclopedia (CCLE)
Assay: High-throughput cell viability assay, CCLE cell line panel (n = 356)
Format: cell-based, human
Details: Homo sapiens
Experimental: Cell lines were partitioned into sensitive and insensitive groups based on compound potency (IC50). […] All other cell lines were obtained from ATCC (American Type Culture Collection), DSMZ (Deutsche Sammlung von Mikroorganismen und Zellkulturen), and HSRRB (Health Science Research Resources Bank) and cultured in RPMI or Dulbecco's modified Eagle's medium plus 10% FBS (Invitrogen, Carlsbad, CA) at 37°C, 5% CO2.

Measured: IC50

COc1cc2c(cc1OC(C)C)[C@H](c1ccc(Cl)cc1)N(c1ccc(N(C)C[C@H]3CC[C@H](N4CCNC(=O)C4)CC3)cc1)C(=O)C2 [NVP-CFC218]
1.9 µM: NCI-H2122, NCI-H2122, TP53 MUT
3.64 µM: JVM-3, JVM-3, TP53 WT
6.39 µM: NCI-H1944, NCI-H1944, TP53 WT
1.38 µM: KE-97, KE-97, TP53 WT
2.71 µM: Lu-99, LU99, TP53 WT
7.62 µM: Loucy, TP53 MUT | MDA-MB-415, MDA-MB-415, TP53 MUT
7.24 µM: LP-1, TP53 MUT
3.86 µM: HT-144, HT-144, TP53 WT
1.16 µM: NALM-6, NALM-6, TP53 WT
7.91 µM: HEC-151, TP53 MUT
2.5 µM: P12-Ichikawa, TP53 MUT
6.89 µM: KU-19-19, KU-19-19, TP53 WT
1.73 µM: JHUEM-2, TP53 WT
2.38 µM: OCI-AML2, OCI-AML2, TP53 WT
6.44 µM: Hs 936.T, TP53 WT
1.95 µM: HepG2, Hep G2, TP53 WT
> 8 µM: HCC-56, TP53 MUT | HCT-15, HCT-15, TP53 MUT | HD-MY-Z, TP53 MUT | HEC-50B, TP53 MUT | HEC-59, TP53 MUT | HEL 92.1.7, HEL 92.1.7, TP53 MUT | HH, TP53 MUT | HLF, TP53 MUT | HMC-1-8, TP53 MUT | HPBALL, HPB-ALL, TP53 MUT | HSC-2, read-out: NVP- CFC218 IC50 (µM), cell line HSC-2, upper_aerodigestive_tract, TP53 MUT | HSC-3, HSC-3, TP53 MUT | HSC-4, HSC-4, TP53 MUT | HT-29, HT-29, TP53 MUT | Hs 683, Hs 683, TP53 MUT | Hs 729, TP53 MUT | Hs746T, Hs 746T, TP53 MUT | Hs766T, Hs 766T, TP53 MUT | Hs-578T, Hs 578T, TP53 MUT | HuCCT-1, HuCCT1, TP53 MUT | HuT78, HuT 78, TP53 MUT | Huh-7, HuH-7, TP53 MUT | IA-LM, TP53 MUT | IGR-39, IGR-39, TP53 MUT | IGROV-1, IGROV1, TP53 MUT | IM95, read-out: NVP- CFC218 IC50 (µM), cell line IM95, stomach, TP53 WT | IPC-298, IPC-298, TP53 MUT | IST-MES2, TP53 MUT | J82, TP53 MUT | JHH7, JHH-7, TP53 MUT | JHH-4, JHH-4, TP53 MUT | JMSU-1, JMSU-1, TP53 MUT | KARPAS-299, KARPAS-299, TP53 MUT | KATO III, TP53 MUT | KCL-22, KCL-22, TP53 MUT | KE-39, TP53 MUT | KMM-1, KMM-1, TP53 MUT | KMRC-1, read-out: NVP- CFC218 IC50 (µM), cell line KMRC-1, kidney, TP53 WT | KMS-11, KMS-11, TP53 WT | KMS-26, KMS-26, TP53 MUT | KMS-27, read-out: NVP- CFC218 IC50 (µM), cell line KMS-27, haem._and_lymphoid_tissue, TP53 WT | KMS-28BM, read-out: NVP- CFC218 IC50 (µM), cell line KMS-28BM, haem._and_lymphoid_tissue, TP53 WT | KNS-42, read-out: NVP- CFC218 IC50 (µM), cell line KNS-42, central_nervous_system, TP53 MUT | KNS-60, TP53 MUT | KNS-62, KNS-62, TP53 MUT | KO52, TP53 MUT | KP4, TP53 WT | KP-2, TP53 MUT | KP-3, TP53 MUT | KU812, KU812, TP53 MUT | KYSE-30, KYSE-30, TP53 MUT | KYSE-70, KYSE-70, TP53 MUT | KYSE-140, KYSE-140, TP53 MUT | KYSE-180, KYSE-180, TP53 MUT | KYSE-410, read-out: NVP- CFC218 IC50 (µM), cell line KYSE-410, oesophagus, TP53 MUT | KYSE-450, read-out: NVP- CFC218 IC50 (µM), cell line KYSE-450, oesophagus, TP53 MUT | KYSE-510, read-out: NVP- CFC218 IC50 (µM), cell line KYSE-510, oesophagus, TP53 MUT | KYSE-520, read-out: NVP- CFC218 IC50 (µM), cell line KYSE-520, oesophagus, TP53 MUT | L3.3, TP53 WT | L-363, L-363, TP53 MUT | L-428, read-out: NVP- CFC218 IC50 (µM), cell line L-428, haem._and_lymphoid_tissue, TP53 MUT | LC-1/sq-SF, TP53 MUT | LCLC-103H, TP53 MUT | LK-2, TP53 MUT | LN-18, LN-18, TP53 MUT | LN-229, read-out: NVP- CFC218 IC50 (µM), cell line LN-229, central_nervous_system, TP53 WT | LOU-NH91, LOU-NH91, TP53 MUT | LOX IMVI, TP53 WT | LS-1034, LS1034, TP53 MUT | LUDLU-1, LUDLU-1, TP53 MUT | Lu-65, LU65, TP53 MUT | MDA-MB-453, MDA-MB-453, TP53 WT | MDA-MB-468, MDA-MB-468, TP53 MUT | MEG-01, MEG-01, TP53 MUT | MFE-296, MFE-296, TP53 MUT | MFE-319, TP53 MUT | MG-63, MG-63, TP53 WT | MHH-ES-1, read-out: NVP- CFC218 IC50 (µM), cell line MHH-ES-1, bone, TP53 MUT | MIA PaCa-2, MIA PaCa-2, TP53 MUT | MKN-74, MKN74, TP53 MUT | MOG-G-CCM, TP53 MUT | MOG-G-UVW, TP53 WT | MOLM16, MOLM-16, TP53 MUT | MOR/CPR, TP53 MUT | MPP 89, TP53 WT | Malme-3M, read-out: NVP- CFC218 IC50 (µM), cell line Malme-3M, skin, TP53 WT | MeWo, TP53 MUT | Mono-Mac-1, MONO-MAC-1, TP53 MUT | NB-4, TP53 MUT | NCI-H23, NCI-H23, TP53 MUT | NCI-H211, NCI-H211, TP53 MUT | NCI-H358, NCI-H358, TP53 WT | NCI-H441, NCI-H441, TP53 MUT | NCI-H460, read-out: NVP- CFC218 IC50 (µM), cell line NCI-H460, lung, TP53 WT | NCI-H520, NCI-H520, TP53 MUT | NCI-H647, read-out: NVP- CFC218 IC50 (µM), cell line NCI-H647, lung, TP53 MUT | NCI-H650, NCI-H650, TP53 MUT | NCI-H747, NCI-H747, TP53 MUT | NCI-H810, NCI-H810, TP53 MUT | NCI-H889, NCI-H889, TP53 MUT | NCI-H1299, read-out: NVP- CFC218 IC50 (µM), cell line NCI-H1299, lung, TP53 WT | NCI-H1355, NCI-H1355, TP53 MUT | NCI-H1373, NCI-H1373, TP53 MUT | NCI-H1435, NCI-H1435, TP53 MUT | NCI-H1573, NCI-H1573, TP53 MUT | NCI-H1581, NCI-H1581, TP53 MUT | NCI-H1648, NCI-H1648, TP53 MUT | NCI-H1650, read-out: NVP- CFC218 IC50 (µM), cell line NCI-H1650, lung, TP53 MUT | NCI-H1651, NCI-H1651, TP53 MUT | NCI-H1693, read-out: NVP- CFC218 IC50 (µM), cell line NCI-H1693, lung, TP53 MUT | NCI-H1703, read-out: NVP- CFC218 IC50 (µM), cell line NCI-H1703, lung, TP53 MUT | NCI-H1734, NCI-H1734, TP53 MUT | NCI-H1792, NCI-H1792, TP53 MUT | NCI-H1915, NCI-H1915, TP53 MUT | NCI-H1975, NCI-H1975, TP53 MUT | NCI-H2009, NCI-H2009, TP53 MUT | NCI-H2087, NCI-H2087, TP53 MUT | NCI-H2110, NCI-H2110, TP53 MUT | NCI-H2172, NCI-H2172, TP53 WT | NCI-H2196, NCI-H2196, TP53 MUT | NCI-H2347, NCI-H2347, TP53 WT | NCI-H2444, NCI-H2444, TP53 MUT | NCI-H2452, NCI-H2452, TP53 WT | NCO2, TP53 MUT | OAW-42, read-out: NVP- CFC218 IC50 (µM), cell line OAW42, ovary, TP53 WT | OC 316, TP53 MUT | OCI-Ly10, OCI-LY10, TP53 MUT | OCI-M1, OCI-M1, TP53 MUT | OE19, read-out: NVP- CFC218 IC50 (µM), cell line OE19, oesophagus, TP53 MUT | OE33, OE33, TP53 MUT | ONS-76, ONS-76, TP53 WT | OPM-2, OPM-2, TP53 MUT | OV-90, OV-90, TP53 MUT | OVCAR-3, NIH:OVCAR-3, TP53 MUT | OVCAR-4, OVCAR-4, TP53 MUT | OVCAR-8, read-out: NVP- CFC218 IC50 (µM), cell line OVCAR-8, ovary, TP53 MUT | OVSAHO, TP53 MUT | P3HR-1, P3HR-1, TP53 MUT | P31-FUJ, P31/FUJ, TP53 MUT
3.55 µM: KMBC-2, TP53 MUT
3.36 µM: NCI-H2052, NCI-H2052, TP53 WT
3.61 µM: Hs 294T, TP53 MUT | K029AX, TP53 WT
7.41 µM: HGC-27, HGC-27, TP53 MUT
5.21 µM: MC116, MC116, TP53 MUT
0.69 µM: MOLM-13, MOLM-13, TP53 WT
0.88 µM: NCI-H1666, NCI-H1666, TP53 WT
2.95 µM: KYM-1, TP53 WT
1.2 µM: KP-N-SI9s, TP53 WT
3.12 µM: HEY A8, Hey-A8, TP53 WT
2.2 µM: KS-1, TP53 WT
3.65 µM: Hs 695T, TP53 WT
6.92 µM: MFE-280, MFE-280, TP53 MUT
3.38 µM: HCT 116 TP53(-/-), HCT 116, TP53 WT
